In patent publication US4925943A, “2-(2-aminobenzyl or 2-nitrobenzyl)-1,2,3,4-tetrahydroisoquinoline derivatives” (priority 1986, dated 1990):
Like-named read-outs stand apart in the source and are kept apart here.

Columns and labels:
[1] = biological target: T1, α2 adrenergic receptors of rat cerebral cortex (Rattus norvegicus, UniProt P22909); experiment: [3H] yohimbine binding, rat cerebral cortex (α2); design: species or system rat (male Wistar)
T1 construct: The preparation of the cerebral cortex homogenates is made starting from male Wistar rats; from tissue; host or cells: cerebral cortex homogenate of male Wistar rats
T1 sequence (P22909 1-465): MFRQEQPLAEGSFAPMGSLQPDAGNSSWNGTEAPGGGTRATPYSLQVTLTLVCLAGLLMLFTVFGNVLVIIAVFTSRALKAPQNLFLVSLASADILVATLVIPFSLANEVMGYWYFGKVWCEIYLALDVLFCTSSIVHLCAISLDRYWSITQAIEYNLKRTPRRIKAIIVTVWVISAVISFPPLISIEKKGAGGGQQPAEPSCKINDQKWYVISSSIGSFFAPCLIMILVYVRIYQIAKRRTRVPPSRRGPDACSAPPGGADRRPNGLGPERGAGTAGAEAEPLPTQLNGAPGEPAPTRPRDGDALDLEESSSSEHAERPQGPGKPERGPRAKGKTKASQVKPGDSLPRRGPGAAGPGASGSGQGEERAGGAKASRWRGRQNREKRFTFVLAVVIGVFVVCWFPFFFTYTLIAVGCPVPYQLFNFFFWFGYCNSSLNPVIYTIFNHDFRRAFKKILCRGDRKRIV
Description: (§1) The preparation of the cerebral cortex homogenates is made starting from male Wistar rats, age 12 weeks. After decapitation, the brains are rapidly removed and dissected. The tissues are homogenized with the aid of an ultra-turrax in 50 mM of a pH 7.5 Tris-HCl buffer and centrifuged at 40,000 g for ten minutes. The centrifugate is dissolved in buffer and recentrifuged in the same way. All of the operations are carried out at a temperature less than 4° C. The final centrifugate is homogenized in the incubation buffer maintained in melting ice (tris-HCl 50 mM pH 7.5) so as to obtain a final dilution of the cortical tissue of 1/100 (by volume), which corresponds to about 0.5 mg of protein per ml.
(§2) These filters are rinsed 4 times with 5 ml of incubation buffer preserved in ice. The radioactivity retained on the filters is counted by liquid scintillation. The non-specific fixation of the radioactive ligand is evaluated in the presence of 10 μM phentolamine.
(§3) Starting from the inhibition curves for the specific fixation of a ligand to its receptor by increasing quantities of a non-radioactive product, the inhibition constant (Ki) of this product is determined.

[2] = biological target: α1 adrenergic receptors of rat cerebral cortex; experiment: [3H] prazosine binding, rat cerebral cortex (α1); design: species or system rat (male Wistar); settings: for Ki: read-out: Prazosine [^3 H] Ki nM, rat cerebral cortex, 0.2 nM [3H] prazosine, 25° C., 30 minutes, at least three experiments ± standard deviation
Description: as §1, §2, §3

[3] = tested on: H1 histaminic receptor; experiment: binding sites of [3H] pyrilamine
[4] = biological target: T2, α1 adrenergic receptors of isolated rat deferent canal (Rattus norvegicus, UniProt P43140); experiment: antagonism with phenylephrine induced contraction of rat deferent canal; design: species or system rat (male Wistar); settings: for effect on effect-concentration curves of phenylephrine: FIG. 3; for slope of Schild relation, antagonism with phenylephrine: rat deferent canal
T2 construct: The deferent canals of 12-week old male Wistar rats are removed; from tissue; host or cells: isolated vas deferens (deferent canal) of male Wistar rats
T2 sequence (P43140 1-466): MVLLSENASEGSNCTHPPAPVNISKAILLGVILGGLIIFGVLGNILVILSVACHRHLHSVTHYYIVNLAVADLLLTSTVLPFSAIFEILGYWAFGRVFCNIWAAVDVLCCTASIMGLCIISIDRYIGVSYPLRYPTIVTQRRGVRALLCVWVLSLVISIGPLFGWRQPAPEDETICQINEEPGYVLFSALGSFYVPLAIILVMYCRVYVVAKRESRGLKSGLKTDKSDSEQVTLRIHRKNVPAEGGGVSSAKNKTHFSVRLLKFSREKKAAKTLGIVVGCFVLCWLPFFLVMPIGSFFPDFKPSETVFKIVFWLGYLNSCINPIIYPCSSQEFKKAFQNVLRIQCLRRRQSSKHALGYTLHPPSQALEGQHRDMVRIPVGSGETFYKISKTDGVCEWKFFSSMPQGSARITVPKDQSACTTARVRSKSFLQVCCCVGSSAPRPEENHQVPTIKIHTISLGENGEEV
Description: The deferent canals of 12-week old male Wistar rats are removed.
Each organ is connected to an isometric sensor of tradename Statham, made by Gould Inc., Medical Product Division, under a base tension of 0.5 g. Contractions are recorded by a polygraph of tradename Beckman, made by Beckman. To characterize the α2 blocking effect, the deferent canal is electrically stimulated by rectangular impulses of 2 msec duration, 30 volts, with a frequency of 0.2 Hz delivered by a stimulator of tradename Bioscience (Stimulator 100), made by Palmer. After a rest period of 20-30 minutes, increasing concentrations of clonidine are added to the survival medium over 2 minutes. This permits establishing the relation between the effect and concentration of clonidine. After generating two successive, cumulative effect-concentration curves separated by a rest period of 20 minutes, the antagonist is placed in contact with the isolated organ for 10 minutes and a new effect-concentration relationship is determined.
To characterize the α1 blocking effect, the organ is stimulated by phenylephrine. […] After a rest period of 30 minutes, increasing concentrations of phenylephrine are added in the organ cell over 30 seconds. A first effect-concentration relationship is established. After a washing and a new rest period of 15 mins. wherein the organ returns to the initial tension, a second effect-concentration relationship is effected. The antagonist is placed in contact with the tissue returned to its base tension after washing and a third effect-concentration relationship is determined. […] The apparent dissociation constant (KD), calculated according to Furchgott, is the relation between the molar concentration of antagonist and the relation of equiactive doses of agonist (in the presence and absence of antagonist) -1.

[5] = tested on: D2 dopaminergic receptor; experiment: binding sites of [3H] dexetimide
[6] = tested on: serotonergic receptor; experiment: binding sites of [3H] ketanserine
[7] = biological target: T3, α2 adrenergic receptors of isolated rat deferent canal (Rattus norvegicus, UniProt P22909); experiment: antagonism with clonidine on electrically stimulated rat deferent canal
T3 sequence (P22909 1-465): T1 sequence (P22909 1-465)
Description: Each organ is connected to an isometric sensor of tradename Statham, made by Gould Inc., Medical Product Division, under a base tension of 0.5 g. Contractions are recorded by a polygraph of tradename Beckman, made by Beckman. To characterize the α2 blocking effect, the deferent canal is electrically stimulated by rectangular impulses of 2 msec duration, 30 volts, with a frequency of 0.2 Hz delivered by a stimulator of tradename Bioscience (Stimulator 100), made by Palmer. After a rest period of 20-30 minutes, increasing concentrations of clonidine are added to the survival medium over 2 minutes. This permits establishing the relation between the effect and concentration of clonidine. After generating two successive, cumulative effect-concentration curves separated by a rest period of 20 minutes, the antagonist is placed in contact with the isolated organ for 10 minutes and a new effect-concentration relationship is determined. In preliminary experiments, it was established that the second and third effect-concentration relation with the agonist are identical in the absence of antagonist.
To characterize the α1 blocking effect, the organ is stimulated by phenylephrine. Stimulation of the rat deferent canal produces a rapid contractile response (maximum contraction is obtained in 30 seconds). After a rest period of 30 minutes, increasing concentrations of phenylephrine are added in the organ cell over 30 seconds. A first effect-concentration relationship is established. After a washing and a new rest period of 15 mins. wherein the organ returns to the initial tension, a second effect-concentration relationship is effected. The antagonist is placed in contact with the tissue returned to its base tension after washing and a third effect-concentration relationship is determined. In preliminary experiments, it was established that the second and third effect-concentration relationship of the agonist are identical in the absence of antagonist. […] The apparent dissociation constant (KD), calculated according to Furchgott, is the relation between the molar concentration of antagonist and the relation of equiactive doses of agonist (in the presence and absence of antagonist) -1.
The effect (inhibition of the contractile response) is expressed as a percentage of the maximum effect.

[8] = tested on: α2 adrenergic receptors of rat aorta; experiment: antagonism of BHT 920 induced contraction of isolated rat aorta; design: species or system rat (female Wistar)
Description: The antagonism of ISK7 relative to the contracture-causing effect of BHT 920 (2-amino-6-allyl-5,6,7,8-tetrahydro[4,5-d]thiazolo-4H-azepinedihydrochloride) (α2 adrenergic agonist) on rat aorta is taken as an example. There is antagonism when a substance is capable of partially or totally opposing the effects of an agonistic substance.
Rapidly removed female Wistar rat aorta is received in a Krebs solution containing: NaCl 120 mM; KCl 4.8 mM; NaHCO3 25 mM; glucose 10 mM; CaCl2 1.25 mM; MgSO4 1.19 mM; KH2 PO4 1.14 mM. The aorta, freed of connective and adipose tissue, is cut in hoops of a length of about 1 mm. Each hoop is installed in a 10 ml organ cell containing Krebs liquid at 37°, oxygenated with an oxygen-carbon dioxide mixture (95% O2 and 5% CO2) and connected to an isometric sensor of tradename Statham and made by Gould Inc., Medical Product Division, under a base tension of 2 g. Recording of the contractions is effected with a polygraph of tradename Beckman and made by Beckman. After a rest period (1 h) interrupted by washings, a first effect-concentration relation is established by studying the contraction provoked by addition in the cell of increasing concentrations of BHT 920. After a new rest period interrupted by washings (30 min.) where the organ returns to the initial tension, the antagonist is placed in contact with the vessel for 10 minutes; the a new effect-concentration relation with BHT 920 is established. In preliminary experiments, it was established that the first and second effect-concentration relation of the agonist are identical in the absence of antagonist. […] The displacement increases with ISK concentration. […] The apparent dissociation constant of ISK7, calculated from experiments illustrated in FIG. 1 for a competitive antagonism according to Furchgott R. F. (in Catecholamines, ed. by Blaschko and Muscholl, Springer-Verlag, Berlin, 1972, pp. 283-335) is 1.2×10^-7 M for the two concentrations employed. […]

[9] = tested on: binding sites of [^3 H] nitrendipine (calcium influx blocking agent); experiment: binding sites of [3H] nitrendipine
[10] = tested on: α1 receptors; settings: statement in words, background; cited from earlier work

Compound: COc1cc(N)c(CN2CCc3cc(OC)c(OC)cc3C2)cc1OC [ISK4, 2-(2-amino-4,5-dimethoxybenzyl)-6,7-dimethoxy-1,2,3,4-tetrahydroisoquinoline]
- Ki [1]: 810 ± 110 nM
- Ki [2]: 2900 ± 400 nM

Compound: COc1ccc2c(c1)CCN(Cc1cc(OC)c(OC)cc1N)C2 [ISK7, 2-(2-amino-4,5-dimethoxybenzyl)-6-methoxy-1,2,3,4-tetrahydroisoquinoline]
- affinity for the binding sites of [^3 H] pyrilamine [3]: no affinity
- effect on effect-concentration curves of phenylephrine [4]: shifted toward the right without depression of the maximum
- slope of Schild relation, antagonism with phenylephrine [4]: very different than 1
- Kd ([4]; read-out: log of KD, antagonism with phenylephrine (pA2 cannot be calculated) (converted)): 2880 nM
- inhibition of the effect of phenylephrine relative to clonidine ([4]; α1 versus α2, rat deferent canal): only at concentrations very significantly higher than the concentrations at which it competitively inhibits the effect of α2 selective agonist, clonidine
- Ki [1]: 63 ± 20 nM
- affinity for the binding sites of [^3 H] dexetimide [5]: no affinity
- affinity for the binding sites of [^3 H] ketanserine [6]: no affinity
- Kb [7]: 200 nM
- effect on effect-concentration curves of clonidine ([7]; FIG. 2, ISK7 100-3000 nM, prazosine 1000-10,000 nM, yohimbine 30-1000 nM): shift toward the right of the effect-concentration curves of agonist without diminution of the maximum effect
- antagonist selectivity on isolated rat deferent canal ([7]; clonidine (α2) versus phenylephrine (α1)): selective, α2 type adrenergic antagonist
- slope of Schild relation, antagonism with clonidine ([7]; rat deferent canal, electric stimulation): 1.05
- Kd ([8]; according to Furchgott, competitive antagonism, two concentrations (10^-7 and 10^-6), read-out: apparent dissociation constant (antagonism of BHT 920, rat aorta)): 120 nM
- pA2 on aorta ([8]; antagonism with BHT 920): 6.9
- effect on effect-concentration curve of BHT 920 ([8]; rat aorta, 10 minutes contact): shift to the right of the effect-concentration curve of the agonist, without depression of the maximum
- Ki [2]: 990 ± 50 nM
- affinity for the binding sites of [^3 H] nitrendipine [9]: no affinity

Compound: COc1cc2c(cc1OC)CN(Cc1ccccc1N)CC2 [ISK17, 2-(2-aminobenzyl)-6,7-dimethoxy-1,2,3,4-tetrahydroisoquinoline]
- Ki [1]: 1700 ± 300 nM
- Ki [2]: 3400 ± 300 nM

Compound: COc1cc(N)c(CN2CCc3ccccc3C2)cc1OC [ISK18, 2-(2-amino-4,5-dimethoxybenzyl)-1,2,3,4-tetrahydroisoquinoline]
- Ki [1]: 220 ± 75 nM
- Ki [2]: 3220 ± 70 nM

Compound: CNc1cc(OC)c(OC)cc1CN1CCc2cc(OC)c(OC)cc2C1 [ISK23, 2-(2-methylamino-4,5-dimethoxybenzyl)-6,7-dimethoxy-1,2,3,4-tetrahydroisoquinoline]
- Ki [1]: 2670 ± 400 nM
- Ki [2]: > 10000 nM

Compound: O=[N+]([O-])c1cc(Cl)ccc1CN1CCc2ccccc2C1 [ISK24, 2-(2-nitro-4-chlorobenzyl)-1,2,3,4-tetrahydroisoquinoline]
- Ki [1]: 2740 ± 1020 nM
- Ki [2]: > 30000 nM

Compound: Nc1cc(Cl)ccc1CN1CCc2ccccc2C1 [ISK25, 2-(2-amino-4-chlorobenzyl)-1,2,3,4-tetrahydroisoquinoline]
- Ki [1]: 1400 ± 375 nM
- Ki [2]: > 30000 nM

Compound: COc1ccc2c(c1)CCN(Cc1ccc(Cl)cc1N)C2 [ISK31, 2-(2-amino-4-chlorobenzyl)-6-methoxy-1,2,3,4-tetrahydroisoquinoline]
- Ki [1]: 155 ± 35 nM
- Ki [2]: 1800 ± 330 nM

Compound: COc1cc2nc(N3CCN(C(=O)c4ccco4)CC3)nc(N)c2cc1OC [Prazosine [^3 H], reference compound]
- Kd ([2]; read-out: KD of Prazosine [^3 H], radioligand): 0.14 nM

Compound: COc1cc2nc(N3CCN(C(=O)c4ccco4)CC3)nc(N)c2cc1OC [Prazosine, reference compound]
- effect on effect-concentration curves of phenylephrine [4]: shifted toward the right without depression of the maximum
- slope of Schild relation, antagonism with phenylephrine [4]: 0.99

Compound: COC(=O)[C@@H]1[C@H]2C[C@H]3c4[nH]c5ccccc5c4CCN3C[C@@H]2CC[C@@H]1O [Yohimbine, reference compound]
- effect on effect-concentration curves of phenylephrine [4]: shifted toward the right without depression of the maximum
- slope of Schild relation, antagonism with phenylephrine [4]: 0.85
- effect on effect-concentration curves of clonidine [7]: shift toward the right of the effect-concentration curves of agonist without diminution of the maximum effect
- slope of Schild relation, antagonism with clonidine [7]: 1.15
- Ki [2]: 350 ± 30 nM
- affinity for α1 receptors [10]: only slight affinity
